These results are taken from patent publication US6703362B1, “Random peptides that bind to gastro-intestinal tract (GIT) transport receptors and related methods” (Cytogen Corporation, priority 1997, dated 2004).

For one series, the target named is T1, HPT1 (Homo sapiens, UniProt Q12864).
T1 construct: 29-273; made in house
T1 sequence (Q12864 29-273): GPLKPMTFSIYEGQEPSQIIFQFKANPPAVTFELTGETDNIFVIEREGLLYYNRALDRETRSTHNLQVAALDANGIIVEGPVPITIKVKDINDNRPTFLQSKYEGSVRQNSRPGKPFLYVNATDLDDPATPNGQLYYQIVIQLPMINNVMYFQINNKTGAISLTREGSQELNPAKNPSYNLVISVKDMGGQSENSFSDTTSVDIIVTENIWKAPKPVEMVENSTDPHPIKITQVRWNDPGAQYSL
The series is described as follows: Phage receptor ELISA on HPT1. Format: binding. As to conditions: Table 5. The procedure: (§1) 96 well plates were coated overnight with GIT receptor, BSA and, optionally, IDE (insulin degrading enzyme, an irrelevant His-fusion protein)or hTF. The plates were 5 blocked for one hour with 0.5% BSA-PBS. After clarification, the amplified phage were diluted 1:100 in […] plus 0.05% Tween 20 in PBS and added to the plates. Following incubation of the plates on a rotator for 1 to 2 hours, the plates were washed 5 times with 1% BSA plus 0.05% Tween 20 in PBS. Dilute anti-M13-HRP conjugate (anti-M13 antibody linked to horse radish peroxidase (HRP)) was added to all the wells and the plate was incubated for one hour on a rotator. After the plates were washed 5 times, as described above, TMB substrate was added to the wells. The plates were read at 650 nm absorbance.

The target in a further series is BSA (Bos taurus, UniProt P02769). The series is described as follows: Phage ELISA on BSA (background control protein). In kind it is binding. As to conditions: Table 5. The procedure: as §1
A general note: In an ELISA, binding on a coated surface is turned into a signal by an enzyme label.

The nature of series [1]: Isoelectric points of synthetic peptides. In kind it is physicochemical.

Sequence of BSA (P02769 25-607): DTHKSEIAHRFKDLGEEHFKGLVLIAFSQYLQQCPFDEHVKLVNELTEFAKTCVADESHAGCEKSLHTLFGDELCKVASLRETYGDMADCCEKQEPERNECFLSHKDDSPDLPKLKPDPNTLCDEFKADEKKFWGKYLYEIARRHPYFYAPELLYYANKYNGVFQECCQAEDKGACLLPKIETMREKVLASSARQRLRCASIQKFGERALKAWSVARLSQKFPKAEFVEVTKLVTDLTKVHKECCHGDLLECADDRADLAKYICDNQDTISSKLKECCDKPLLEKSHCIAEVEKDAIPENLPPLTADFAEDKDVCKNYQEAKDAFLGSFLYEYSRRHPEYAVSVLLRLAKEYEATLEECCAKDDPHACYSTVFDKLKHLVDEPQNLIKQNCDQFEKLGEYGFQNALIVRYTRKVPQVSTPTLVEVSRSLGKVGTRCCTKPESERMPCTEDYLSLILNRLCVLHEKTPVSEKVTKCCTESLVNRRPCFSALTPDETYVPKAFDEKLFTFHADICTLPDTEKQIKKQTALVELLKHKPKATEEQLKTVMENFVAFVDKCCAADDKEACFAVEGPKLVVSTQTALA

As for “SDHALGTNLRSDNAKEPGDYNCCGNGNSTGRKVFNRRRPSAIPT [HAX42]”, the “OD, binding to HPT1” value at HPT1 (phage panned on HPT-1) was determined as 0.32. The HPT/BSA at HPT1 (ratio of HPT-1 to BSA binding) is 5. Besides, the “OD, binding to BSA” value on BSA was 0.071. For the same sequence, the pI in series [1] amounted to 9.62.
